For the assay, the system named is B6C3F1 mice, B16 melanoma ip, median survival T/C. Briefly: NCI In Vivo Anticancer Drug Screen. Data for tumor model B16 Melanoma (intraperitoneal) in B6C3F1 mice. The settings on record: endpoint: median survival time, higher = longer survival. In outline:
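Tumor-bearing mice received test compound; a separate group got vehicle only. Survival was then compared, with results reported as treated over control.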

Where [1] appears, read: dose: 50.0 mg/kg/injection, schedule: Q01DX009 (ip), vehicle: saline with Tween-80.
The mark [2] stands for this setting: dose: 50.0 mg/kg/injection, schedule: Q01DX009 (ip), vehicle: saline.
Where [3] appears, read: dose: 75.0 mg/kg/injection, schedule: Q01DX009 (ip), vehicle: saline.
Where [4] appears, read: dose: 100.0 mg/kg/injection, schedule: Q01DX009 (ip), vehicle: distilled water + Tween-80.
Setting [5] is: dose: 100.0 mg/kg/injection, schedule: Q01DX009 (ip), vehicle: saline with Tween-80.
[6] abbreviates: dose: 150.0 mg/kg/injection, schedule: Q01DX009 (ip), vehicle: saline.
Setting [7] is: dose: 200.0 mg/kg/injection, schedule: Q01DX009 (ip), vehicle: saline with Tween-80.
Where [8] appears, read: dose: 12.5 mg/kg/injection, schedule: Q01DX009 (ip), vehicle: saline.
The mark [9] stands for this setting: dose: 25.0 mg/kg/injection, schedule: Q01DX009 (ip), vehicle: saline.

Consider 14 compounds from PubChem BioAssay AID200 (DTP/NCI, 2004).

Several values for one entry are separate records, joined by “and”; a condition that tells them apart may be missing. Identical values can stand only once. Inconclusive results and toxic doses are left out.

For the compound `CC1(CO)C(O)CCC2(C)C1CCC1CC3CC12CCC3(O)CO` (centres undefined), the T/C is, setting by setting: (dose: 10.0 mg/kg/injection, schedule: Q03HX027 (ip), vehicle: saline with Tween-80) 118 % of control; (dose: 12.5 mg/kg/injection, schedule: Q01DX009 (ip), vehicle: saline with Tween-80) 116 % of control and 117 % of control; (dose: 25.0 mg/kg/injection, schedule: Q01DX009 (ip), vehicle: saline with Tween-80) 119 % of control and 122 % of control; (dose: 30.0 mg/kg/injection, schedule: Q01DX005 (iv), vehicle: Klucel (hydroxypropylcellulose) (HPC)) 103 % of control; (dose: 40.0 mg/kg/injection, schedule: Q03HX027 (ip), vehicle: saline with Tween-80) 187 % of control and 202 % of control; (dose: 50.0 mg/kg/injection, schedule: Q01DX009 (ip), vehicle: distilled water + Tween-80) 179 % of control. The T/C is 159 % of control under setting [1]; 109 % of control under setting [2]; 95 % of control (dose: 60.0 mg/kg/injection, schedule: Q01DX005 (iv), vehicle: Klucel (hydroxypropylcellulose) (HPC)); 106 % of control (dose: 60.0 mg/kg/injection, schedule: Q01DX005 (oral), vehicle: Klucel (hydroxypropylcellulose) (HPC)); 113 % of control under setting [3]; 235 % of control (dose: 80.0 mg/kg/injection, schedule: Q03HX027 (ip), vehicle: saline with Tween-80). Moreover, the T/C is, setting by setting: under setting [4], 166 % of control; under setting [5], 162 % of control and 173 % of control and 187 % of control; (dose: 100.0 mg/kg/injection, schedule: Q01DX009 (ip), vehicle: saline) 119 % of control; (dose: 120.0 mg/kg/injection, schedule: Q01DX005 (ip), vehicle: Klucel (hydroxypropylcellulose) (HPC)) 150 % of control; (dose: 120.0 mg/kg/injection, schedule: Q01DX005 (iv), vehicle: Klucel (hydroxypropylcellulose) (HPC)) 104 % of control; (dose: 120.0 mg/kg/injection, schedule: Q01DX005 (oral), vehicle: Klucel (hydroxypropylcellulose) (HPC)) 99 % of control. Moreover, the T/C is 161 % of control under setting [6]; 201 % of control (dose: 200.0 mg/kg/injection, schedule: Q01DX009 (ip), vehicle: distilled water + Tween-80); 236 % of control under setting [7]; 184 % of control (dose: 240.0 mg/kg/injection, schedule: Q01DX005 (ip), vehicle: Klucel (hydroxypropylcellulose) (HPC)); 104 % of control (dose: 240.0 mg/kg/injection, schedule: Q01DX005 (oral), vehicle: Klucel (hydroxypropylcellulose) (HPC)); 100 % of control (dose: 480.0 mg/kg/injection, schedule: Q01DX005 (oral), vehicle: Klucel (hydroxypropylcellulose) (HPC)).

On to `CCCC(NC(=O)OCc1ccccc1)C(=O)NC(Cc1c[nH]c2ccccc12)C(=O)O` (centres undefined), for which the T/C is, setting by setting: (dose: 100.0 mg/kg/injection, schedule: Q01DX009 (ip), vehicle: Klucel (hydroxypropylcellulose) (HPC)) 107 % of control; (dose: 200.0 mg/kg/injection, schedule: Q01DX009 (ip), vehicle: Klucel (hydroxypropylcellulose) (HPC)) 99 % of control; (dose: 400.0 mg/kg/injection, schedule: Q01DX009 (ip), vehicle: Klucel (hydroxypropylcellulose) (HPC)) 100 % of control.

`COc1ccc(-c2c3c(cc4cc5c(cc24)OCO5)C(=O)OC3)cc1OC`: the T/C (dose: 6.0 mg/kg/injection, schedule: Q01DX009 (ip), vehicle: Klucel (hydroxypropylcellulose) (HPC)) was 100 % of control; the T/C (dose: 12.0 mg/kg/injection, schedule: Q01DX009 (ip), vehicle: Klucel (hydroxypropylcellulose) (HPC)) was 117 % of control and 105 % of control; the T/C (dose: 24.0 mg/kg/injection, schedule: Q01DX009 (ip), vehicle: Klucel (hydroxypropylcellulose) (HPC)) was 88 % of control and 99 % of control.

As for `c1ccc([Te][Te]c2ccccc2)cc1`, the T/C reads like this: (dose: 3.0 mg/kg/injection, schedule: Q01DX009 (ip), vehicle: saline with Tween-80) 92 % of control and 94 % of control; (dose: 6.0 mg/kg/injection, schedule: Q01DX009 (ip), vehicle: saline with Tween-80) 98 % of control and 100 % of control and 106 % of control; (dose: 12.0 mg/kg/injection, schedule: Q01DX009 (ip), vehicle: saline with Tween-80) 112 % of control and 122 % of control and 98 % of control; (dose: 24.0 mg/kg/injection, schedule: Q01DX009 (ip), vehicle: saline with Tween-80) 114 % of control and 121 % of control and 102 % of control; (dose: 48.0 mg/kg/injection, schedule: Q01DX009 (ip), vehicle: saline with Tween-80) 113 % of control.

Consider `COc1cccc2c1C(=O)c1c(O)c3c(c(O)c1C2=O)C[C@@](O)(C(=O)CO)C[C@@H]3OC1CC(N)CC(C)O1` (some centres undefined), for which the T/C was 174 % of control (dose: 0.18 mg/kg/injection, schedule: Q01DX009 (ip), vehicle: water); 231 % of control (dose: 0.37 mg/kg/injection, schedule: Q01DX009 (ip), vehicle: water); 175 % of control (dose: 0.38 mg/kg/injection, schedule: Q01DX009 (ip), vehicle: water); 187 % of control and 238 % of control (dose: 0.75 mg/kg/injection, schedule: Q01DX009 (ip), vehicle: water); 181 % of control and 187 % of control (dose: 1.5 mg/kg/injection, schedule: Q01DX009 (ip), vehicle: water).

In the case of `Cc1ccc2c(ccc(CC(=S)[S-])[n+]2C)c1`, the T/C is 92 % of control and 93 % of control (dose: 6.25 mg/kg/injection, schedule: Q01DX009 (ip), vehicle: Klucel (hydroxypropylcellulose) (HPC)); 92 % of control and 99 % of control (dose: 12.5 mg/kg/injection, schedule: Q01DX009 (ip), vehicle: Klucel (hydroxypropylcellulose) (HPC)); 87 % of control and 88 % of control (dose: 25.0 mg/kg/injection, schedule: Q01DX009 (ip), vehicle: Klucel (hydroxypropylcellulose) (HPC)); 89 % of control (dose: 50.0 mg/kg/injection, schedule: Q01DX009 (ip), vehicle: Klucel (hydroxypropylcellulose) (HPC)).

As to `COc1cc2cc(c1Cl)N(C)C(=O)C[C@H](OC(=O)[C@H](C)N(C)C(C)=O)[C@]1(C)O[C@H]1[C@H](C)[C@@H]1C[C@@](O)(NC(=O)O1)[C@H](OC)C=C/C=C(\C)C2`, the T/C (dose: 1.0 micrograms/kg/injection, schedule: Q01DX009 (ip), vehicle: saline + alcohol) is 121 % of control; the T/C (dose: 2.0 micrograms/kg/injection, schedule: Q01DX005 (iv), vehicle: saline + alcohol) is 107 % of control; the T/C (dose: 4.0 micrograms/kg/injection, schedule: Q01DX005 (iv), vehicle: saline + alcohol) was 106 % of control; the T/C (dose: 8.0 micrograms/kg/injection, schedule: Q01DX005 (iv), vehicle: saline + alcohol) was 100 % of control and 106 % of control; the T/C (dose: 64.0 micrograms/kg/injection, schedule: Q01DX005 (iv), vehicle: saline + alcohol) was 112 % of control and 113 % of control; the T/C (dose: 128.0 micrograms/kg/injection, schedule: Q01DX005 (iv), vehicle: saline + alcohol) was 120 % of control. Also, the T/C (dose: 256.0 micrograms/kg/injection, schedule: Q01DX005 (iv), vehicle: saline + alcohol) is 152 % of control.

Take `O=C(NC(CSSCC(NC(=O)c1ccccc1)C(=O)O)C(=O)O)c1ccccc1` (centres undefined): the T/C under setting [1] is 109 % of control; the T/C under setting [5] was 108 % of control; the T/C under setting [7] is 106 % of control; the T/C (dose: 400.0 mg/kg/injection, schedule: Q01DX009 (ip), vehicle: saline with Tween-80) was 100 % of control.

In the case of `O=C1C2CC(CN3CCCCC23)C2CCCCN12` (centres undefined), the T/C is 104 % of control (dose: 37.5 mg/kg/injection, schedule: Q01DX009 (ip), vehicle: saline); 105 % of control under setting [3]; 97 % of control under setting [6].

In the case of `CCOc1ncc([N+](=O)[O-])c(OCC)n1`, the T/C was 89 % of control and 106 % of control under setting [1]; 103 % of control under setting [5]; 91 % of control and 96 % of control under setting [7].

As to `O=C(Nc1ccc([N+](=O)[O-])cc1)Nc1nccs1`, the T/C is, setting by setting: (dose: 12.5 mg/kg/injection, schedule: Q01DX009 (ip), vehicle: distilled water + Tween-80) 111 % of control and 120 % of control; (dose: 25.0 mg/kg/injection, schedule: Q01DX009 (ip), vehicle: distilled water + Tween-80) 111 % of control; under setting [4], 105 % of control.

For the compound `CCCCNC(C)C1(O)Cc2c(O)c3c(c(O)c2C(OC2CC(N)C(O)C(C)O2)C1)C(=O)c1c(OC)cccc1C3=O` (centres undefined), the T/C is 120 % of control (dose: 5.0 mg/kg/injection, schedule: Q01DX009 (ip), vehicle: saline); 174 % of control and 193 % of control (dose: 10.0 mg/kg/injection, schedule: Q01DX009 (ip), vehicle: saline); 160 % of control and 222 % of control (dose: 20.0 mg/kg/injection, schedule: Q01DX009 (ip), vehicle: saline); 190 % of control and 333 % of control (dose: 40.0 mg/kg/injection, schedule: Q01DX009 (ip), vehicle: saline); 232 % of control and 333 % of control (dose: 80.0 mg/kg/injection, schedule: Q01DX009 (ip), vehicle: saline).

Regarding `CN(C)CC(O)c1cc2ccccc2c2ccccc12` (centres undefined), the T/C runs as follows: under setting [8], 103 % of control; under setting [9], 103 % of control.

Consider `O=S1(=O)CCCO1`, for which the T/C under setting [8] is 95 % of control, the T/C under setting [9] is 99 % of control and the T/C under setting [2] was 94 % of control.
